We go through one compound from patent publication US9580428B2, “Compositions and methods for inhibiting viral polymerase” (priority 2012, dated 2017).

For the test, the system named is A/NJ/15/2007 (H1N1 - H274Y). In kind it is cell-based, influenza A virus.

For `Cl.Cl.Nc1ncnc2c([C@@H]3N[C@H](CO)[C@@H](O)[C@H]3O)c[nH]c12` [compound 12i, (2S,3S,4R,5R)-2-(4-amino-5H-pyrrolo[3,2-d]pyrimidin-7-yl)-5-(hydroxymethyl)pyrrolidine-3,4-diol dihydrochloride], the “EC50” value stood at 1.39 µg/mL.

A word on the EC50: it is the concentration needed to bring the measured effect to its halfway point.
